In turn, `COC(=O)/C(C#N)=C/c1ccccc1` returned a melting point of 90 to 91 °C. Consider `FC(F)C(F)(F)Oc1cccc(Nc2nccc(-c3c[nH]c4ccccc34)n2)c1`, for which the melting point was 140 to 142 °C. On to `COc1cc(Cn2c(-c3ccc(OCc4ccccc4)cc3)c(C)c3cc(OCc4ccccc4)ccc32)ccc1OCCBr`, for which the melting point is 150 to 152 °C. Compound `Cc1ncc(C(=O)O)c(C2=NC(C)(C(C)C)C(=O)N2)n1` (configuration not stated) registered a melting point of 56 to 57 °C. Compound `Clc1ccc2[nH]c(=Nc3ccccc3)n3nc(-c4ccco4)nc3c2c1` returned a melting point of 231 to 233 °C. The result for `CC(C)(C)OC(=O)NCCCn1cnc2c(N)nc3ccccc3c21` reads 196 to 198 °C. The result for `O=C1Nc2ccccc2SC[C@@H]1N1C(=O)c2ccccc2C1=O` reads 202 to 205 °C. The same measure for `O=C(O)C(O)CSc1ccc(-c2ccccc2)cc1` (configuration not stated): 176 °C; for `CC(C)(C)OC(=O)CN(C(=O)CN1C(=O)c2ccccc2C1=O)c1ccccc1Oc1ccccc1`: 145 °C; for `CCCOCCOc1ccc(COc2ccc3c(c2)C=C(C(=O)Nc2ccc(CN(C)C4CCOCC4)cc2)CCS3(=O)=O)cc1OCC`: 146 to 147 °C. Regarding `CNC(=O)c1cnn(C2(C)CCCC2)c1C#N`, the melting point lay within 139 to 141 °C. The result for `CC(C)c1nc(COCc2ccccc2)n(CC2CC2)c1Sc1cc(Cl)cc(Cl)c1` reads 120 to 121 °C.

Regarding `COc1ccc(C(=O)Cc2c(Cl)cncc2Cl)c2cc(C(=O)N3CCN(C)CC3)oc12`, the melting point lay in the range of 160 to 161 °C. `Oc1nc2ccc(Br)cc2[nH]1`: the melting point lay within 305 to 307 °C. The result for `O[C@@H]1C=CO[C@H](COCc2ccccc2)[C@H]1OCc1ccccc1` reads 53 °C. The result for `CCOC(=O)c1csc(Nc2ccc(C)cn2)n1` reads 198 to 200 °C; that for `NC(=O)c1cc2ccccc2cc1O`, 216 to 217 °C. The same measure for `C=CCOc1cc(C=O)ccc1O`: 66 to 67 °C; for `Cc1nn(CC(F)(F)COC(=O)c2cccnc2)c(-c2ccc(F)cc2)c1-c1ccc2c(c1)NC(=O)CO2`: 169 to 172 °C; for `NC(=O)c1ccc(F)c2c1C=C([N+](=O)[O-])CO2`: 225 to 227 °C. Compound `N#Cc1nn(-c2c(Cl)cc(C(F)(F)F)cc2Cl)cc1C=NO` displayed a melting point of 170 °C. The result for `CCCCCC(C)(O)C=CC1CCC(=O)C1CCCCCCC(=O)O` (configuration not stated) reads 61 to 62 °C; that for `CC1(C)OC(=O)Nc2ccc(-c3cccc(C#C[Si](C)(C)C)c3)cc21`, 240 to 242 °C; that for `COCCc1sc2ncnc(N)c2c1-c1ccc(NC(=O)c2ccccc2)cc1`, 200 to 202 °C. On to `Cc1ccc(C(=O)O)c(-c2ccc(Cl)c(C(=O)NCC34CC5CC(CC(C5)C3)C4)c2)n1`, for which the melting point was 209 to 211 °C. The result for `CN1CCC(=C2c3ccccc3C=Cc3ccc(C#N)cc32)CC1` reads 141 to 146 °C; that for `COC(=O)CC1CC(c2ccc(C#N)nc2)=NO1` (configuration not stated), 115 to 116 °C; that for `Cn1c(C(F)(F)F)cc2ccccc21`, 28 to 32 °C. The same measure for `CC1(c2cccc(C3(O)CCCCC3)c2)OCCO1`: 55 to 57 °C; for `CC[C@H](Nn1c([C@H](C)OC)nnc1[C@H](C)OC)C(OC)OC`: 67 to 68 °C.

On to `O=C(NCc1ccc2ccn(C3CCN(CCc4ccc(F)cc4)CC3)c2c1)C(F)F`, for which the melting point is 79 to 80 °C. The same measure for `Cc1ccc2c(-n3ccnc3)c(F)ccc2n1`: 159 to 161 °C.

In the case of `CC(=O)N1CCN(c2ccc(N=CNc3cc(Cl)cc(C(=Cc4ccccc4Cl)C(N)=O)c3)cc2)CC1`, the melting point lay in the range of 259 to 260 °C.

As for `CCc1nn(CCO)c(CC)c1Cc1cc(C#N)cc(C#N)c1`, the melting point was in the range of 115 to 117 °C. The result for `CCCc1ccc(CCCOc2c(C)cc(-c3nnn(C)n3)cc2C)o1` reads 38 to 39 °C; that for `O=Cc1ccc(OC2CCCC2)c2oc3ccc([N+](=O)[O-])cc3c12`, 230 to 240 °C. The result for `C#CCn1c(C(F)(F)F)c(C(C)O)sc1=O` (racemic) reads 77 to 78 °C; that for `O=C(OCc1ccccc1)C(O)P(=O)(OCc1ccccc1)OCc1ccccc1` (configuration not stated), 67 to 68 °C; that for `O=C(O)c1cn(-c2ccc(F)cc2F)c2cc(N3CCC4(C3)OCCCO4)c(F)cc2c1=O`, 168 to 170 °C.

In the case of `CCc1nccn1-c1ccccc1C(=O)Nc1ccc(C(=O)N2CCC(F)(F)/C(=C\C(=O)NC3CC3)c3ccccc32)cc1`, the melting point is greater than 260 °C.

In turn, `COCCN(C)Cc1ccc(NC(=O)C2=Cc3cc(-c4ccc(C)cc4)ccc3OCC2)cc1` yielded a melting point of 121 to 122 °C. The result for `CCC1CCCCN1C(=O)C=Cc1c(-c2ccccc2)nn2ccccc12` (configuration not stated) reads 121 to 122 °C; that for `Cc1ccc(NC(=O)c2ccc(C(=O)Nc3ccccc3NC(=O)OC(C)(C)C)s2)cc1Nc1nc(-c2cccnc2)cs1`, 218 °C. The result for `O=C(O)c1ccc(NCc2cccc([N+](=O)[O-])c2)cc1O` reads 189 °C.

The compound `CCOP(=O)(CC(=O)O)CC(Cc1ccccc1)NS(=O)(=O)c1ccc(C)cc1` (configuration not stated) had a melting point of 110 to 112 °C. The result for `Nc1nc(-c2ccccn2)cc2ccccc12` reads 152 to 153 °C. The result for `CC(=O)C1(c2ccccc2)CCN(C(=O)C(c2ccccc2)n2cnc3[nH]ncc3c2=S)CC1` (configuration not stated) reads 125 to 128 °C; that for `Cc1c(F)cc2c(=O)c(C(=O)O)cn(C3CC3)c2c1F`, 208 to 210 °C; that for `O=Cc1ccccc1C(=O)c1ccc(Br)cc1`, 103 to 109 °C. `Cc1ccccc1-c1nnc(N2CCC(O)CC2)nc1-c1ccccc1C` came in with a melting point of 155 to 156 °C. The result for `O=[N+]([O-])c1ccc(NS(=O)(=O)C(F)(F)F)c(Oc2ccc3ccccc3c2)c1` reads 117 to 120 °C; that for `CC(=O)Oc1cc(C)cc(C(=O)O)c1C`, 153 to 154 °C; that for `CCN(CC)Cc1ccnc(F)c1C=NO`, 97 to 99 °C.

As for `COC(=O)C=Cc1ccc(OCC2CCCCC2)cc1`, the melting point came to 104 °C.

With `CCCCc1nc2ccc(C(=O)O)cc2n1Cc1ccc(C(=O)O)cc1`, the melting point was 290 °C.

`O=[N+]([O-])c1nccn1C1CCCC1O` (configuration not stated) had a melting point of 109 °C. The same measure for `CCCOc1ccc2cc(-c3ccc4c(c3)C=C(C(=O)Nc3ccc(CN(C)C5CCOCC5)cc3)CCS4(=O)=O)oc2c1`: 215 to 216 °C; for `COC(=O)c1sc(C)cc1N1N=C2c3cc(C)sc3SCC2CC1=O` (configuration not stated): 164 to 166 °C; for `Cc1cccc(Nc2c([N+](=O)[O-])cc(C(=O)O)cc2S(N)(=O)=O)c1`: 256 to 259 °C.

`N#CCCNC(=O)c1cccc(-c2cccc3cn(Cc4cccc(C(F)(F)F)c4)nc23)c1` gave a melting point of 174 to 175 °C.

`O=c1[nH]cc(Br)cc1Nc1ccncn1` had a melting point of 150 to 151 °C.

Consider `Cn1cc(C2=C(c3c4n(c5ccccc35)CCC4)C(=O)OC2=O)c2ccccc21`, for which the melting point was 125 to 130 °C. In turn, `COc1ccc(-c2nc3cccc(OC)c3c(=O)[nH]2)nc1-c1ccc(S(C)=O)cc1` (configuration not stated) showed a melting point of 308 to 310 °C. As for `O=C(NCc1ccc(OCCN2CCCC2)cc1)c1ccc2c(c1)OCO2`, the melting point was in the range of 93.5 to 94.5 °C. The result for `COc1cc(C(=O)N(C(C)C)C2CCCCC2)ccc1Cn1c(CO)nc2ncccc21` reads 117 to 119 °C; that for `Cc1ccc(-c2c(C(N)=O)n(C)c(=O)c3ncccc23)cc1`, greater than 310 °C; that for `CC(=O)NCC1CN(c2ccc(N3CCN(C(=O)COC(=O)CO)CC3)c(F)c2)C(=O)O1` (configuration not stated), 105 to 107 °C. The result for `CNc1c(F)cc2c(=O)c(C(=O)O)cn(-c3ccc(F)c(O)c3)c2c1Cl` reads greater than 280 °C; that for `CCCCC12CCC3=C(CCc4cc(OC)ccc43)C1CCC2=O` (configuration not stated), 105 to 108 °C. The result for `CCNc1nc(C)nc(O)c1C(C)C` reads 180 °C; that for `CC(C)(C)CC(=O)N[C@H]1CC[C@H](CCN2CCN(c3nccc4c3CCO4)CC2)CC1`, 192 °C. Take `COC(=O)c1scc(C)c1-n1cccc1`: the melting point was 76 °C.

On to `CCOC(=O)c1cnc2c3cc(NC(=O)C(CC)CC)ccc3ncn2c1=O`, for which the melting point fell in the range of 220 to 222 °C. The same measure for `CC(C)(F)[C@H]1C(=O)N[C@@H]1CC(=O)OCc1ccccc1` (racemic): 112 to 116 °C. `O=C1c2ccccc2C(=O)c2c1ccc1[nH]c(=O)c(=O)[nH]c21` had a melting point of 245 to 246 °C. The result for `CCOC(=O)c1cn(Cc2ccccc2OC)c2sc(-c3ccc(OC)cc3)c(C)c2c1=O` reads 165 to 167 °C; that for `CCCN1C(=O)C2(c3ccc([N+](=O)[O-])cc3)CC(c3ccc([N+](=O)[O-])cc3)(C2)C1=O`, 237 to 238 °C; that for `COC(=O)c1ccccc1S(=O)(=O)NC(=O)Nc1nc(N)cc(Cl)n1`, 170 to 172 °C. The same measure for `CCCCCCCCCCCCCCOc1ccc(COC(=O)NCc2ccccn2)cc1`: 67 to 68 °C; for `CN(C)Cc1ccccc1-c1ccc(N2CCc3c(C(F)(F)F)nn(-c4cccc(C(N)=O)c4)c3C2=O)cc1`: 259 °C; for `Fc1ccc2nc(CBr)ccc2c1`: 90 to 92 °C. The same measure for `CCOc1cc2ncc(C#N)c(NCc3ccc(Cl)c(Cl)c3)c2cc1OCC`: 163 to 165 °C. `CCN(CC)Cc1ccnc(F)c1CNC(=O)c1cnc2cc(I)ccc2n1` registered a melting point of 147 to 149 °C. The result for `CCOC12CC(C=C(C#N)COC)=CC=C1OCO2` (configuration not stated) reads 64 to 65 °C.

`Cc1oc(-c2ccccc2)nc1CCOc1ccc(Cn2cc(CCC(=O)O)c(-c3ccccc3)c2)cc1` returned a melting point of 147 to 148 °C. The same measure for `COc1ccc(Oc2cccc(-c3nnc(Nc4ccc(Cl)c(Cl)c4)s3)c2)cc1`: 198 to 199 °C; for `Cc1nc2ccc(F)cc2[nH]1`: 177 to 178 °C.

As usually defined, the melting point is the temperature, or range, at which the solid turns liquid.

These data come from a melting point compilation (Tetko et al.; mined from patent text by program, amines drawn as free bases though some values may be those of a salt).
